Our source for the IC50 values is patent US20120157448A1, “COMPOUNDS FOR TREATING NEURODEGENERATIVE DISEASES” (priority 2010, published 2012).

The term IC50 denotes the midpoint of a concentration-inhibition curve.

For the first test, the target named is T1, BACE-1 (Homo sapiens, UniProt P56817).
T1 construct: endogenous in cells; host or cells: HEK-293 cells stably transfected with wild type APP695
T1 sequence (P56817 46-501): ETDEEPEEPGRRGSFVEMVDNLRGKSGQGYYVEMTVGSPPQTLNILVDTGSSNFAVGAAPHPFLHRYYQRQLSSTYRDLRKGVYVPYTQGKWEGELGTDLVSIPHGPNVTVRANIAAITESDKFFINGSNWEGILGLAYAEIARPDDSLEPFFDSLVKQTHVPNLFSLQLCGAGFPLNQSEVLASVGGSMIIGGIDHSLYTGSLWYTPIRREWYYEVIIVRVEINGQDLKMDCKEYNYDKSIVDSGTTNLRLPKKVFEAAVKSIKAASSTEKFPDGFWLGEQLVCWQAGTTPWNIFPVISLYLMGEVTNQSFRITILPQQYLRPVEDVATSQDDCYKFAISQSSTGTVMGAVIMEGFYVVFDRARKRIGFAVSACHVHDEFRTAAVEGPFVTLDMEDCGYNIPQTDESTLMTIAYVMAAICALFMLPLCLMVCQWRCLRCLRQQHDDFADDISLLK
The test can be described thus: Cellular BACE-1 inhibition assay (in vitro cellular Amyloidβ 1-40 production, HTRF immunoassay). Format: cell-based.
Conditions: not given
The method, then: Materials and Methods: HEK-293 cells stably transfected with a DNA construct containing the coding sequence for the wild type APP695 sequence were grown in Dulbecco's Modified Eagle Medium (“DMEM”) supplemented with 10% fetal bovine serum, penicillin/streptomycin and 150 μg/mL G418. Cells were plated in 96-well plates at 35,000 cells/well and allowed to attach for 8-12 hours. Media was changed to DMEM supplemented with 10% fetal bovine serum, penicillin/streptomycin 15 minutes prior to compound addition. Diluted compounds were then added at a final concentration of 0.5% DMSO. After 48 hours, 4 μL of media from each well was added to a corresponding well of a 384 well plate (Perkin Elmer Cat#6008280) containing the HTRF reagents. HTRF reagents were obtained from the CisBio Amyloid β 1-40 peptide assay kit (Cat#62B40PEC) and were prepared as follows anti-peptide β (1-40)-Cryptate and anti-peptide […] were stored in 2 plate aliquots at −80° C. Diluent and Reconstitution buffer were stored at 4° C. Aliquots of the two antibodies were diluted 1:100 with Reconstitution buffer, and this mixture was diluted 1:2 with Diluent. 12 μL of the reagent mixture was added to the required wells of the 384 well assay plate. The assay plate was incubated at 4° C. for 17 hours and then analyzed for fluorescence at 665 and 620 nm. The following compounds were tested in the above assay. Some compounds were tested more than once, and the average is reported below.
(In TR-FRET formats the signal depends on donor and acceptor labels being close together.)
For the compound `C[C@@]12CCOC[C@H]1C1(COC(N)=N1)c1cc(-c3cccnc3F)ccc1C2` (relative stereo) [Example 118, (4aR*,10aR*)-8-(2-fluoropyridin-3-yl)-4a-methyl-1,3,4,4a,5,10a-hexahydro-5′H-spiro[benzo[g]isochromene-10,4′-oxazol]-2′-amine], half-maximal inhibition (IC50) required 219 nM.

The same test, now with this note: inhibition of Amyloidβ 1-40 production; HEK-293 cells stably transfected with wild type APP695; 48 hours incubation; average where tested more than once; read-out: IC50.
With `NC1=NC2(CO1)c1cc(-c3cccnc3F)ccc1OC1CCN(C(=O)OCc3ccccc3)C[C@@H]12` (mixture of isomers) [Example 5, rac-trans-(4a,10a)-benzyl 2′-amino-8-(2-fluoropyridin-3-yl)-1,4,4a,10a-tetrahydro-5′H-spiro[chromeno[3,2-c]pyridine-10,4′-oxazole]-2(3H)-carboxylate], the IC50 is 133 nM. Same read-out and setting: to `NC1=NC2(CO1)c1cc(-c3cncc(Cl)c3)ccc1OC1CCCCC12` (racemic) [Example 9, 7′-(5-chloropyridin-3-yl)-1′,2′,3′,4′,4a′,9a′-hexahydro-5H-spiro[oxazole-4,9′-xanthen]-2-amine] belongs 43.4 nM; to `NC1=NC2(CO1)c1cc(NC(=O)c3ccc(Br)cn3)ccc1OC1CCCCC12` (racemic) [Example 17, N-(2-amino-1′,2′,3′,4′,4a′,9a′-hexahydro-5H-spiro[oxazole-4,9′-xanthene]-7′-yl)-5-bromopicolinamide], 147 nM. Still for that read-out and setting: to `NC1=NC2(CO1)c1cc(-c3cccnc3F)ccc1OC1CCNC[C@@H]12` (mixture of isomers) [Example 41, rac-trans-(4a,10a)-8-(2-fluoropyridin-3-yl)-1,2,3,4,4a,10a-hexahydro-5′H-spiro[chromeno[3,2-c]pyridine-10,4′-oxazol]-2′-amine] belongs 1330 nM.

Take `NC1=NC2(CO1)c1cc(-c3cccnc3F)ccc1OC1CCN(CC(F)(F)F)C[C@@H]12` (mixture of isomers) [Example 44, rac-trans-(4a,10a)-8-(2-fluoropyridin-3-yl)-2-(2,2,2-trifluoroethyl)-1,2,3,4,4a,10a-hexahydro-5′H-spiro[chromeno[3,2-c]pyridine-10,4′-oxazol]-2′-amine]: the IC50 is 304 nM. Still for that read-out and setting: then `NC1=NC2(CS1)c1cc(-c3cncnc3)ccc1O[C@H]1CC(O)CC[C@@H]12` (relative stereo) [Example 26, (4a′S*,9a′R*)-2-amino-7′-(pyrimidin-5-yl)-1′,2′,3′,4′,4a′,9a′-hexahydro-5H-spiro[thiazole-4,9′-xanthen]-3′-ol], with 86.6 nM.

For `NC1=N[C@@]2(CO1)c1cc(-c3cncc(Cl)c3)ccc1OC1CC[C@H](OCC3CC3)C[C@@H]12` (relative stereo) [Example 28, (4R*,4a′S*,9a′R*)-7′-(5-chloropyridin-3-yl)-2′-(cyclopropylmethoxy)-1′,2′,3′,4′,4a′,9a′-hexahydro-5H-spiro[oxazole-4,9′-xanthen]-2-amine], the IC50 turned out to be 7.8 nM.

In the case of `NC1=N[C@]2(CO1)c1cc(-c3cncc(Cl)c3)ccc1OC1CC[C@H](OCC3CC3)C[C@@H]12` (relative stereo) [Example 29, (4S*,4a′S*,9a′R*)-7′-(5-chloropyridin-3-yl)-2′-(cyclopropylmethoxy)-1′,2′,3′,4′,4a′,9a′-hexahydro-5H-spiro[oxazole-4,9′-xanthen]-2-amine], the IC50 was determined as 8.9 nM. Consider `C[C@]12CCCO[C@@H]1[C@]1(COC(N)=N1)c1cc(-c3cncc(F)c3)ccc1O2` (relative stereo) [Example 88, (4R*,4a′S*,10a′R*)-8′-(5-fluoropyridin-3-yl)-4a′-methyl-3′,4′,4a′,10a′-tetrahydro-2′H,5H-spiro[oxazole-4,10′-pyrano[3,2-b]chromen]-2-amine], for which the IC50 was 154 nM. Same read-out and setting: to `C[C@H]1OCCC2Oc3ccc(-c4cncc(Cl)c4)cc3[C@@]3(COC(N)=N3)[C@@H]21` (relative stereo) [Example 90, (1′R*4R*,4a′R*,10a′R*)-8′-(5-chloropyridin-3-yl)-1′-methyl-3′,4′,4a′,10a′-tetrahydro-1′H,5H-spiro[oxazole-4,10′-pyrano[4,3-b]chromen]-2-amine] belongs 1340 nM.

For the compound `NC1=N[C@@]2(CO1)c1cc(-c3cccnc3F)ccc1O[C@H]1CCN(C(=O)CC3CC3)C[C@@H]12` (relative stereo) [Example 218, 1-((4aS*,4′R*,10aR*)-2′-amino-8-(2-fluoropyridin-3-yl)-1,4,4a,10a-tetrahydro-5′H-spiro[chromeno[3,2-c]pyridine-10,4′-oxazol]-2(3H)-yl)-2-cyclopropylethanone], the IC50 turned out to be 457 nM. On the same count and under the same terms, then `NC1=NC2(CO1)c1cc(-c3cncc(Cl)c3)ccc1O[C@@H]1CCCC[C@H]12` (single isomer, unassigned) [Example 10, 7′-(5-chloropyridin-3-yl)-1′,2′,3′,4′,4a′,9a′-hexahydro-5H-spiro[oxazole-4,9′-xanthen]-2-amine], with 58.5 nM; and `NC1=NC2(CO1)c1cc(-c3cncnc3)ccc1OC1CCCCC12` (single isomer, unassigned) [Example 11, 7′-(pyrimidin-5-yl)-1′,2′,3′,4′,4a′,9a′-hexahydro-5H-spiro[oxazole-4,9′-xanthen]-2-amine], with 69.5 nM.

For `NC1=NC2(CO1)c1cc(-c3cncnc3)ccc1OC1CCCCC12` (single isomer, unassigned) [Example 12, 7′-(pyrimidin-5-yl)-1′,2′,3′,4′,4a′,9a′-hexahydro-5H-spiro[oxazole-4,9′-xanthen]-2-amine], the IC50 was 60.7 nM.

As for `Cc1nc(C(=O)Nc2ccc3c(c2)C2(COC(N)=N2)C2CCCCC2O3)co1` (single isomer, unassigned) [Example 14, N-(2-amino-1′,2′,3′,4′,4a′,9a′-hexahydro-5H-spiro[oxazole-4,9′-xanthene]-7′-yl)-2-methyloxazole-4-carboxamide], the half-inhibitory concentration (IC50) came out at 73.5 nM.

As for `Cc1nc(C(=O)Nc2ccc3c(c2)C2(COC(N)=N2)[C@@H]2CCCCC2O3)co1` (single isomer, unassigned) [Example 15, N-(2-amino-1′,2′,3′,4′,4a′,9a′-hexahydro-5H-spiro[oxazole-4,9′-xanthene]-7′-yl)-2-methyloxazole-4-carboxamide], the IC50 stood at 58.7 nM. The same measure, in the same setting: to `NC1=NC2(CO1)c1cc(NC(=O)c3ccc(Cl)cn3)ccc1OC1CCCCC12` (single isomer, unassigned) [Example 16, N-(2-amino-1′,2′,3′,4′,4a′,9a′-hexahydro-5H-spiro[oxazole-4,9′-xanthene]-7′-yl)-5-chloropicolinamide] belongs 171 nM.

Turning to `NC1=NC2(CS1)c1cc(-c3cncc(Cl)c3)ccc1OC1CC(O)CC[C@@H]12` (single isomer, unassigned) [Example 25, (4a′S*,9aR*)-2-amino-7′-(5-chloropyridin-3-yl)-1′,2′,3′,4′,4a′,9a′-hexahydro-5H-spiro[thiazole-4,9′-xanthen]-3′-ol], the IC50 came to 24.1 nM. On the same count and under the same terms, then `CC(C)CS(=O)(=O)N1CC[C@@H]2Oc3ccc(-c4cccnc4F)cc3[C@]3(COC(N)=N3)[C@H]2C1` (single isomer, unassigned) [Example 120], with 41 nM. On the same count and under the same terms, to `NC1=NC2(CO1)c1cc(-c3cccnc3F)ccc1OC1CCC(O)C[C@@H]12` (stereo in doubt) [Example 31, (4a′S*,9a′R*)-2-amino-7′-(2-fluoropyridin-3-yl)-1′,2′,3′,4′,4a′,9a′-hexahydro-5H-spiro[oxazole-4,9′-xanthen]-2′-ol] belongs 47.3 nM; to `NC1=NC2(CO1)c1cc(-c3cncnc3)ccc1OC1CCC(O)C[C@@H]12` (stereo in doubt) [Example 32, (4a′S*,9a′R*)-2-amino-7′-(pyrimidin-5-yl)-1′,2′,3′,4′,4a′,9a′-hexahydro-5H-spiro[oxazole-4,9′-xanthen]-2′-ol], 118 nM; to `NC1=NC2(CS1)c1cc(-c3cncnc3)ccc1OC1CCC(O)C[C@@H]12` (stereo in doubt) [Example 34, (4a′S*,9aR*)-2-amino-7′-(pyrimidin-5-yl)-1′,2′,3′,4′,4a′,9a′-hexahydro-5,4-spiro[thiazole-4,9′-xanthen]-2′-ol], 90.2 nM. Same read-out and setting: then `CCOCC1CCC2Oc3ccc(-c4cncc(Cl)c4)cc3C3(COC(N)=N3)[C@H]2O1` (stereo in doubt) [Example 98, (4a′S*,10a′R*)-8′45-chloropyridin-3-yl)-2′-(ethoxymethyl)-3′,4′,4a′,10a′-tetrahydro-2H,5H-spiro[oxazole-4,10′-pyrano[3,2-b]chromen]-2-amine], with 421 nM; and `CN1C(=O)CC2(N=C1N)c1cc(-c3cc(F)cc(Cl)c3)ccc1OC1CC3(CCC12)OCCO3` (centres unmarked) [Example 3, 2″-amino-7′-(3-chloro-5-fluorophenyl)-1″-methyl-2′,4′,4′a,5″,6″,9′a-hexahydro-1′H,1″H-dispiro[1,3-dioxolane-2,3′-xanthene-9′,4″-pyrimidine]-6″-one], with 3080 nM.

As to `CN1C(=O)CC2(N=C1N)c1cc(-c3cc(F)cc(Cl)c3)ccc1OC1CC(=O)CCC12` (centres unmarked) [Example 4, 2-amino-7′-(3-chloro-5-fluorophenyl)-1-methyl-1′,4′,4a′,9a′-tetrahydro-1H-spiro[pyrimidine-4,9′-xanthene]-3′,6(2′H,5H)-dione], the 50% inhibitory concentration (IC50) is 1190 nM.
